Laboratory results taken from DBAASP.
Converted amounts (≈) assume the structure as drawn. Blank lines part the entries; values can stand above or below the molecule they belong to.

Experiments:
Test in all cases: ≥ marks a high value that may be exact or a test limit, other limits are often not marked, values filed in µg/mL are converted to µM
[1] = system: Klebsiella aerogenes ATCC 13048
[2] = system: Staphylococcus aureus ATCC 29213
[3] = system: Listeria monocytogenes ATCC 7611
[4] = system: Lacticaseibacillus casei HZ1
Saccharomyces cerevisiae = system: Saccharomyces cerevisiae
[5] = system: Klebsiella pneumoniae ATCC 700603
[6] = system: Pseudomonas aeruginosa ATCC 27853
Klebsiella pneumoniae = system: Klebsiella pneumoniae
[7] = system: Bacillus cereus ATCC 10876
[8] = system: Salmonella enterica subsp. enterica serovar Typhimurium ATCC 14028
[9] = system: Streptococcus dysgalactiae subsp. dysgalactiae ATCC 27957
[10] = system: Enterococcus faecalis ATCC 29212
[11] = system: Streptococcus agalactiae ATCC 27956
[12] = system: Streptococcus equi subsp. zooepidemicus ATCC 43079
[13] = system: Staphylococcus aureus ATCC 6538
[14] = system: Escherichia coli ATCC 25922
[15] = system: Streptococcus iniae KCTC 3657
[16] = system: Staphylococcus aureus ATCC 25923
[17] = system: Candida albicans ATCC 10231
[18] = system: Saccharomyces cerevisiae SZMC 0644
[19] = system: Candida parapsilosis CBS 604
Candida krusei CBS 573 = system: Candida krusei CBS 573
Escherichia coli K-12 = system: Escherichia coli K-12
[20] = system: Staphylococcus epidermidis BM3302
[21] = system: Staphylococcus aureus ST1065
[22] = system: Bacillus subtilis subsp. subtilis CIP 52.65
[23] = system: Kocuria rhizophila ATCC 9341
Escherichia coli ML-35p = system: Escherichia coli ML-35p
[24] = system: Enterococcus faecium BM4147
[25] = system: Staphylococcus aureus DAR 5829
[26] = system: Escherichia coli ATCC 8739
[27] = system: Escherichia coli ATCC 35218
[28] = system: Listeria monocytogenes ATCC 19115
[29] = system: Staphylococcus aureus CMCC 26003
[30] = system: Trichosporon beigelii KCTC 7707
[31] = system: Pseudomonas aeruginosa 4007
[32] = system: Staphylococcus aureus CCARM 3518
[33] = system: Candida albicans KCTC 7270
[34] = system: Escherichia coli CCARM 1238
[35] = system: Pseudomonas aeruginosa 4891
[36] = system: Staphylococcus aureus CCARM 3090
[37] = system: Escherichia coli CCARM 1229

MIC [6]: 0.329 µM (≈ 1 µg/mL)
MIC (Klebsiella pneumoniae): 1.32 µM (≈ 4 µg/mL)
MIC [7]: 21.1 µM (≈ 64 µg/mL)
MIC [8]: 1.65 µM (≈ 5 µg/mL)
MIC [9]: 4.9 µM (≈ 14.9 µg/mL)
MIC [10]: 13.2 µM (≈ 40.1 µg/mL)
MIC [11]: 13.2 µM (≈ 40.1 µg/mL)
MIC [12]: 4.9 µM (≈ 14.9 µg/mL)
MIC [13]: 13.2 µM (≈ 40.1 µg/mL)
MIC [14]: 0.264 µM (≈ 0.8 µg/mL)
MIC [15]: 21.1 µM (≈ 64 µg/mL)
MIC [16]: 24.7 µM (≈ 75 µg/mL)
SMILES: CC[C@H](C)[C@H](NC(=O)[C@H](CCCCN)NC(=O)[C@H](CCC(N)=O)NC(=O)[C@H](CC(C)C)NC(=O)CNC(=O)[C@H](CCCCN)NC(=O)CNC(=O)[C@H](CC(C)C)NC(=O)[C@H](CCCCN)NC(=O)[C@H](CCCCN)NC(=O)[C@H](CCCN=C(N)N)NC(=O)[C@H](C)NC(=O)[C@H](CCCCN)NC(=O)[C@H](CCCN=C(N)N)NC(=O)[C@H](Cc1ccccc1)NC(=O)[C@H](Cc1ccccc1)NC(=O)[C@H](CCCCN)NC(=O)[C@@H](N)CO)C(=O)N[C@@H](CCCCN)C(=O)N[C@@H](CC(N)=O)C(=O)N[C@H](C(=O)N[C@@H](CC(C)C)C(=O)N[C@@H](CCCN=C(N)N)C(=O)N[C@@H](CCCCN)C(=O)N[C@@H](Cc1ccc(O)cc1)C(=O)O)C(C)C [SKFFRKARKKLGKGLQKIKNVLRKY]

MIC [17]: > 65.2 µM
MIC [18]: ≥ 65.2 µM
MIC [19]: ≥ 65.2 µM
MIC (Candida krusei CBS 573): ≥ 65.2 µM
SMILES: CC[C@H](C)[C@H](NC(=O)[C@@H](NC(=O)[C@H](CCCCN)NC(=O)[C@H](CO)NC(=O)[C@H](CCCCN)NC(=O)[C@H](CC(=O)O)NC(=O)[C@H](CO)NC(=O)[C@@H]1CCCN1C(=O)CNC(=O)[C@H](CO)NC(=O)[C@H](Cc1cnc[nH]1)NC(=O)[C@H](Cc1ccc(O)cc1)NC(=O)[C@@H](N)CCCCN)C(C)C)C(=O)N[C@@H](CO)C(=O)O [KYHSGPSDKSKVIS]

MIC [30]: 8 µM (≈ 16.8 µg/mL)
MIC [31]: 2 µM (≈ 4.21 µg/mL)
MIC [32]: 4 µM (≈ 8.42 µg/mL)
MIC [33]: 16 µM (≈ 33.7 µg/mL)
MIC [34]: 2 µM (≈ 4.21 µg/mL)
MIC [35]: 4 µM (≈ 8.42 µg/mL)
MIC [36]: 4 µM (≈ 8.42 µg/mL)
MIC [37]: 2 µM (≈ 4.21 µg/mL)
SMILES: CC[C@H](C)[C@H](NC(=O)[C@H](CC(C)C)NC(=O)[C@H](CCCCN)NC(=O)[C@@H](NC(=O)[C@H](C)NC(=O)[C@H](CCC(=O)O)NC(=O)[C@H](Cc1cnc[nH]1)NC(=O)[C@@H](NC(=O)[C@H](CCCCN)NC(=O)[C@H](CCC(N)=O)NC(=O)[C@H](Cc1ccccc1)NC(=O)[C@@H](NC(=O)[C@H](CCCCN)NC(=O)[C@H](CCCCN)NC(=O)[C@H](CC(C)C)NC(=O)[C@H](C)NC(=O)[C@H](CC(N)=O)NC(=O)[C@@H](N)CC(C)C)C(C)C)[C@@H](C)CC)[C@@H](C)CC)C(N)=O [LNALKKVFQKIHEAIKLI]

The remaining lines, values behind:

SMILES: CC(C)C[C@H](NC(=O)[C@H](Cc1ccccc1)NC(=O)[C@H](CCCCN)NC(=O)[C@H](Cc1ccccc1)NC(=O)[C@H](Cc1ccccc1)NC(=O)[C@H](Cc1cnc[nH]1)NC(=O)[C@@H](NC(=O)[C@H](Cc1c[nH]c2ccccc12)NC(=O)[C@@H](NC(=O)[C@H](CO)NC(=O)[C@@H]1CCCN1C(=O)[C@H](CC(C)C)NC(=O)[C@H](Cc1ccccc1)NC(=O)[C@H](CC(C)C)NC(=O)[C@H](CCCCN)NC(=O)[C@H](CC(C)C)NC(=O)[C@@H]1CCCN1C(=O)[C@H](CC(N)=O)NC(=O)CN)[C@@H](C)O)C(C)C)C(=O)N[C@@H](CCCN=C(N)N)C(=O)O [GNPLKLFLPSTWVHFFKFLR]
MIC [1]: ≥ 64 µM
MIC [2]: 4 µM (≈ 9.79 µg/mL)
MIC [3]: 4 µM (≈ 9.79 µg/mL)
MIC [4]: ≥ 32 µM
MIC (Saccharomyces cerevisiae): ≥ 256 µM
MIC [5]: > 256 µM

SMILES: CC[C@H](C)[C@H](NC(=O)CNC(=O)[C@H](Cc1c[nH]c2ccccc12)NC(=O)[C@@H](NC(=O)CN)C(C)C)C(=O)N[C@@H](C)C(=O)N[C@@H](CCCCN)C(=O)N[C@H](C(=O)N[C@@H](C)C(=O)NCC(=O)N[C@@H](CCCCN)C(=O)N[C@H](C(=O)N[C@@H](CC(C)C)C(=O)NCC(=O)N[C@@H](CC(N)=O)C(=O)N[C@H](C(=O)N[C@@H](CC(C)C)C(=O)N1CCC[C@H]1C(=O)N[C@@H](Cc1cnc[nH]1)C(=O)N[C@H](C(=O)N[C@@H](Cc1ccccc1)C(=O)N[C@@H](CO)C(=O)N[C@@H](CO)C(=O)N[C@@H](CC(N)=O)C(=O)N[C@@H](CCC(N)=O)C(=O)N[C@@H](CO)C(N)=O)C(C)C)[C@@H](C)CC)C(C)C)[C@@H](C)CC [GVWGIAKIAGKVLGNILPHVFSSNQS]
MIC (Escherichia coli K-12): ≥ 100 µM
MIC [20]: 12.5 µM (≈ 33.7 µg/mL)
MIC [2]: 3.12 µM (≈ 8.4 µg/mL)
MIC [6]: > 100 µM
MIC [21]: 12.5 µM (≈ 33.7 µg/mL)
MIC [22]: 6.25 µM (≈ 16.8 µg/mL)
MIC [10]: 50 µM (≈ 135 µg/mL)
MIC [23]: 3.12 µM (≈ 8.4 µg/mL)
MIC (Escherichia coli ML-35p): ≥ 100 µM
MIC [24]: 25 µM (≈ 67.3 µg/mL)
MIC [13]: 6.25 µM (≈ 16.8 µg/mL)
MIC [25]: 25 µM (≈ 67.3 µg/mL)
MIC [26]: 25 µM (≈ 67.3 µg/mL)
MIC [27]: ≥ 100 µM

SMILES: CC[C@H](C)[C@H](NC(=O)[C@H](CCCN=C(N)N)NC(=O)[C@H](CCCN=C(N)N)NC(=O)[C@H](Cc1c[nH]c2ccccc12)NC(=O)[C@@H](N)Cc1ccccc1)C(=O)N[C@@H](CCCN=C(N)N)C(=O)N[C@H](C(=O)N[C@H](C(=O)N1CCC[C@H]1C(=O)N[C@H](C(=O)N[C@H](C(=O)N[C@@H](CC(N)=O)C(=O)N1CCC[C@H]1C(=O)N1CCC[C@H]1C(=O)N[C@@H](Cc1ccccc1)C(=O)N[C@@H](CC(C)C)C(=O)N[C@@H](CCC(N)=O)C(=O)N[C@@H](CCC(N)=O)C(=O)N[C@H](C(N)=O)[C@@H](C)O)C(C)C)C(C)C)[C@@H](C)O)C(C)C [FWRRIRVTPVVNPPFLQQT]
MIC [28]: ≥ 109 µM
MIC [29]: ≥ 109 µM
